Reference: patent publication EP0245669B1, “Pharmaceutical preparation for preventing damage to living cells by free radicals, or for increasing the efficacy of organic sulphur compounds, and process for increasing the life span of isolated organs” (Medopharm Arzneimittelwerk Dr. Zillich GmbH & Co., priority 1986, dated 1987)
Where a name gives a salt, the structure may show the parent alone.

Tested on: weiblichen C3H Mäusen
Test: Radiation protection: survival of mice after gamma irradiation (cobalt-60) following i.p. pretreatment
Assay type: in vivo, Mäuse
Conditions: for überlebten eine Bestrahlung mit 9 Gy / Ueberlebensrate nach Bestrahlung mit 9 Gy: 10 min before 9 Gy; for Ueberlebensrate nach Bestrahlung mit 9 Gy / Ueberlebensrate nach Bestrahlung mit 11 Gy / Ueberlebensrate nach Bestrahlung mit 13 Gy / Ueberlebensrate nach Bestrahlung mit 12 Gy / Ueberlebensrate nach Bestrahlung mit 14 Gy / Ueberlebensrate nach Bestrahlung mit 10 Gy: surviving after 30 days/irradiated mice; for Ueberlebensrate in %: AET alone in optimal dosage, 30 days after irradiation; for Ueberlebensrate nach Bestrahlung mit 10 Gy / überlebten eine Bestrahlung mit 10 Gy: 10 min before 10 Gy
Text: In den nachfolgenden Beispielen wurde die synergistische Wirkung der durch die erfindungsgemässe Verwendung hergestellten pharmazeutischen Präparate mit organische Schwefelverbindungen enthaltenden Präparaten anhand des Strahlenschutzes getestet und es wurde auch die Strahlenschutzwirkung der Zinkionen enthaltenden Präparate mit bisher bekannten Strahlenschutzpräparaten an Mäusen getestet. Die Versuche wurden mit weiblichen C3H Mäusen (GL. Bomholtgard, Ry, Dänemark) durchgeführt, die 20 bis 22 g wogen. Die Mäuse wurden unter Bedingungen gehalten, wo sie so viel Standard-Nagetierfutter (Nafag Pellts) fressen und so viel Leitungswasser trinken können, wie sie wollten. Die Bestrahlung erfolgte mit Gammastrahlen aus einer Kobalt-60 Quelle. Es wurden unterschiedliche Bestrahlungen vorgenommen, und zwar mit 9 Gy, 10 Gy, 11 Gy, 12 Gy, 13 Gy und 14 Gy.
10 Minuten vor der Bestrahlung, 30 Minuten vor der Bestrahlung oder 120 Minuten vor der Bestrahlung wurde ein durch die erfindungsgemässe Verwendung hergestelltes synergistisch wirkendes pharmazeutisches Präparat, bzw. ein entsprechendes, Zinkionen enthaltendes Strahlenschutzpräparat oder ein aus dem Stand der Technik bekanntes Strahlenschutzpräparat zu Vergleichszwecken durch intraperitoneale Injektion verabreicht.
Bei der Gruppe der Mäuse zu Vergleichszwecken, die ohne Verabreichung eines Strahlenschutzpräparates bestrahlt wurden, erfolgte 10 Minuten vor der Bestrahlung die Verabreichung von destilliertem Wasser. Bei diesen unbehandelten Mäusen überlebten nur 50% der Tiere eine Bestrahlung von 8 Gy, d.h. der LD₅₀-Wert betrug 8 Gy.
Nach den Arbeitsweisen der vorangegangenen Beispiele 1 bis 4, wurden weitere Tests mit den genannten weiblichen Mäusen durchgeführt, und zwar unter Verwendung der angeführten Zinksalze. Die bei diesen Tests erzielten Ergebnisse sind in der nachfolgenden Tabelle I zusammengestellt. Für jede der angewandten Bestrahlungsstärken ist in der Rubrik "Anzahl" diejenige Anzahl der Mäuse angeführt, welche die Bestrahlung überlebten, geteilt durch die Gesamtzahl der Mäuse, welche bestrahlt wurden. Ein entsprechender Wert von 1/10 bedeutet also, dass von 10 bestrahlten Mäusen eine überlebt hatte. In der Spalte mit der Bezeichnung "Prozent", ist die Prozent-Ueberlebensrate angeführt. Bei einer überlebenden Maus pro 10 getesteten Mäusen beträgt diese Ueberlebensrate 10 %.
Zu Vergleichszwecken sind in der nachfolgenden Tabelle III die Ueberlebensraten von Mäusen zusammengestellt, die nach dem in Beispiel 5 beschriebenen Verfahren einer Vorbehandlung mit einem bekannten schwefelhaltigen Strahlenschutzmittel unterworfen worden waren. Orientierende Vorversuche hatten gezeigt, dass diese Strahlenschutzmittel bereits ihre Wirkung verloren hatten, wenn sie zwei Stunden vor der Einwirkung der Bestrahlung verabreicht worden waren. Die Bestrahlung wurde, wie aus der Tabelle ersichtlich ist, zwei Minuten nach der Verabreichung, in den meisten Fällen 10 Minuten nach der Verabreichung, aber auch 30 Minuten, bzw. 120 Minuten nach der Verabreichung durchgeführt. Die Werte deuten darauf hin, dass 30 Minuten nach der Verabreichung die Schutzwirkung schon wieder deutlich nachgelassen hat. Für jede Bestrahlungsstärke ist wiederum die Anzahl der Tiere angeführt, die nach 30 Tagen überlebt haben, geteilt durch die Gesamtzahl der Tiere, die behandelt und bestrahlt worden waren.
Anhand dieses Beispiels soll die synergistische Wirkung von Zinkionen und Schwefelverbindungen bezüglich eines Strahlenschutzes erläutert werden. Es wurde wieder in der gleichen Weise gearbeitet, wie in den vorangegangenen Beispielen 1 bis 3, bzw. 5, und es wurde auch die gleiche Art an weiblichen Mäusen getestet. Die Verabreichung der Zinkionen enthaltenden Lösung und der Lösung der Schwefelverbindung erfolgte entweder nacheinander oder gleichzeitig durch intraperitoneale Injektion.
In allen Fällen wurde die Ueberlebensrate 30 Tage nach der Einwirkung der Bestrahlung bestimmt.

[1] = comparison with the zinc compounds to be used according to the invention

N[C@@H](CC(=O)O)C(=O)[O-].[Na+] [Natriumaspartat, reference compound]
Strahlenschutzwirkung (20 to 350 mg/kg body weight injected 10 min before 9 Gy, lethal dose already reached): wirkungslos

Kupferaspartat [reference compound]
Strahlenschutzwirkung (10 to 30 mg/kg body weight injected 10 min before 9 Gy, lethal dose already reached): wirkungslos

COc1ccc(CCCCNCCSS(=O)(=O)O)cc1 [reference compound]
Synergismus mit Zinkionen (Strahlenschutz) (in combination with zinc ions and zinc complexes, procedure of Example 6): die besten Ergebnisse

N[C@@H](CCC(=O)N[C@@H](CS)C(=O)NCC(=O)O)C(=O)O [L-Glutathion, reference compound]
überlebten eine Bestrahlung mit 9 Gy (100 mg/kg body weight (lower dose)): 3 von 10 Tieren | Ueberlebensrate nach Bestrahlung mit 9 Gy (1000 mg/kg i.p.): 3/10 | überlebten eine Bestrahlung mit 9 Gy (2000 mg/kg body weight (higher dose)): 2 von 10 Tieren | Ueberlebensrate nach Bestrahlung mit 9 Gy (2000 mg/kg i.p.): 2/10 | Strahlenschutzwirkung [1]: deutlich weniger wirksam

N=C(N)SCCN [AET, S-(2-Aminoäthyl)-isothiouroniunibromid-hydrobromid, reference compound]
Ueberlebensrate nach Bestrahlung mit 9 Gy (30 mg/kg i.p.): 1/10 | Strahlenschutzwirksamkeit (125 mg/kg body weight, 10 min before irradiation): keine Strahlenschutzwirksamkeit | Ueberlebensrate nach Bestrahlung mit 11 Gy (125 mg/kg i.p., 10 min before 11 Gy): 0/10 | Ueberlebensrate nach Bestrahlung mit 13 Gy (125 mg/kg i.p., 10 min before 13 Gy): 0/10 | überlebte eine Bestrahlung mit 11 Gy (125 mg/kg, 10 min before 11 Gy): kein Tier | überlebte eine Bestrahlung mit 13 Gy (125 mg/kg, 10 min before 13 Gy): kein Tier | Ueberlebensrate nach Bestrahlung mit 13 Gy (250 mg/kg i.p., 2 min before 13 Gy): 0/10 | Ueberlebensrate nach Bestrahlung mit 11 Gy (250 mg/kg i.p., 10 min before 11 Gy): 10/10^+ | Ueberlebensrate nach Bestrahlung mit 12 Gy (250 mg/kg i.p., 10 min before 12 Gy): 9/10^+ | Ueberlebensrate nach Bestrahlung mit 13 Gy (250 mg/kg i.p., 10 min before 13 Gy): 2/10^+ | Ueberlebensrate nach Bestrahlung mit 14 Gy (250 mg/kg i.p., 10 min before 14 Gy): 0/10 | Ueberlebensrate nach Bestrahlung mit 11 Gy (250 mg/kg i.p., 30 min before 11 Gy): 10/10 | Ueberlebensrate nach Bestrahlung mit 12 Gy (250 mg/kg i.p., 30 min before 12 Gy): 2/10 | Ueberlebensrate nach Bestrahlung mit 11 Gy (250 mg/kg i.p., 120 min before 11 Gy): 0/10 | überlebten eine Bestrahlung von 11 Gy (250 mg/kg, 10 min before 11 Gy): sämtliche | überlebten eine Bestrahlung von 12 Gy (250 mg/kg, 10 min before 12 Gy): 9 von 10 getesteten Tieren | überlebten eine Bestrahlung von 13 Gy (250 mg/kg, 10 min before 13 Gy): 2 von 10 getesteten Tieren | Bestrahlung von 14 Gy überlebt (250 mg/kg, 10 min before 14 Gy, 10 animals tested): von keinem der 10 getesteten Tiere | Ueberlebensrate in % (11 Gy): 100% | Ueberlebensrate in % (12 Gy): 90% | Ueberlebensrate in % (13 Gy): 20% | Ueberlebensrate in % (14 Gy): 0%

NCCS [Cysteamin, β-Merkaptoäthylamin, reference compound]
Ueberlebensrate nach Bestrahlung mit 10 Gy (75 mg/kg i.p.): 0/10 | Strahlenschutzwirkung (150 mg/kg body weight, 10 min before 11 Gy): keine Strahlenschutzwirkung | Ueberlebensrate nach Bestrahlung mit 9 Gy (150 mg/kg i.p.): 10/10 | Ueberlebensrate nach Bestrahlung mit 10 Gy (150 mg/kg i.p.): 9/10 | Ueberlebensrate nach Bestrahlung mit 11 Gy (150 mg/kg i.p., 10 min before 11 Gy): 0/10 | Ueberlebensrate (225 mg/kg alone, injected 10 min before 13 Gy): 10% | Ueberlebensrate nach Bestrahlung mit 14 Gy (225 mg/kg i.p., 2 min before 14 Gy): 0/10 | Ueberlebensrate nach Bestrahlung mit 10 Gy (225 mg/kg i.p.): 10/10^+ | Ueberlebensrate nach Bestrahlung mit 11 Gy (225 mg/kg i.p., 10 min before 11 Gy): 8/10^+ | Ueberlebensrate nach Bestrahlung mit 12 Gy (225 mg/kg i.p., 10 min before 12 Gy): 6/10^+ | Ueberlebensrate nach Bestrahlung mit 13 Gy (225 mg/kg i.p., 10 min before 13 Gy): 1/10^+ | Ueberlebensrate nach Bestrahlung mit 14 Gy (225 mg/kg i.p., 10 min before 14 Gy): 0/10 | Ueberlebensrate nach Bestrahlung mit 11 Gy (225 mg/kg i.p., 30 min before 11 Gy): 6/10 | Ueberlebensrate nach Bestrahlung mit 12 Gy (225 mg/kg i.p., 30 min before 12 Gy): 1/10 | Ueberlebensrate nach Bestrahlung mit 11 Gy (225 mg/kg i.p., 120 min before 11 Gy): 0/10 | überlebten eine Bestrahlung mit 11 Gy (225 mg/kg, 10 min before 11 Gy, of 10 animals tested): 8 | überlebten eine Bestrahlung mit 12 Gy (225 mg/kg, 10 min before 12 Gy, of 10 animals tested): 6 | überlebten eine Bestrahlung mit 13 Gy (225 mg/kg, 10 min before 13 Gy, of 10 animals tested): 1 | überlebten eine Bestrahlung mit 14 Gy (225 mg/kg, 10 min before 14 Gy, of 10 animals tested): keines | überlebten eine Bestrahlung mit 11 Gy (225 mg/kg, 30 min before 11 Gy, of 10 animals tested): 6 Tiere | überlebten eine Bestrahlung mit 12 Gy (225 mg/kg, 30 min before 12 Gy, of 10 animals tested): 1 Tier

N[C@@H](CS)C(=O)O [Cystein, reference compound]
Ueberlebensrate nach Bestrahlung mit 9 Gy (300 mg/kg i.p.): 0/10 | Ueberlebensrate nach Bestrahlung mit 9 Gy (600 mg/kg i.p.): 7/10 | Ueberlebensrate nach Bestrahlung mit 10 Gy (600 mg/kg i.p.): 3/10 | überlebten eine Bestrahlung mit 10 Gy (600 mg/kg): 3 von 10 Mäusen | Ueberlebensrate nach Bestrahlung mit 9 Gy (900 mg/kg i.p.): 10/10^+ | Ueberlebensrate nach Bestrahlung mit 10 Gy (900 mg/kg i.p.): 4/10 | Ueberlebensrate nach Bestrahlung mit 11 Gy (900 mg/kg i.p., 10 min before 11 Gy): 0/10 | überlebten eine Bestrahlung mit 10 Gy (900 mg/kg): 4 von 10 Mäusen | Ueberlebensrate nach Bestrahlung mit 10 Gy (1200 mg/kg i.p.): 9/10^+ | Ueberlebensrate nach Bestrahlung mit 11 Gy (1200 mg/kg i.p., 10 min before 11 Gy): 2/10^+ | Ueberlebensrate nach Bestrahlung mit 12 Gy (1200 mg/kg i.p., 10 min before 12 Gy): 1/10^+ | Ueberlebensrate nach Bestrahlung mit 11 Gy (1200 mg/kg i.p., 30 min before 11 Gy): 0/10 | überlebten eine Bestrahlung mit 10 Gy (1200 mg/kg): 9 von 10 Mäusen | überlebten (11 Gy) (1200 mg/kg, 10 min before 11 Gy): zwei | Bestrahlung mit 11 Gy überlebt (600, 900 and 1200 mg/kg, 10 min before 11 Gy): praktisch keinem der Tiere | Strahlenschutzwirkung [1]: deutlich weniger wirksam
